# Data from PubChem BioAssay (NCI).
#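 Following 48 hours of exposure in 96-well plates, responses at five concentrations were used to interpolate endpoints linearly. At the GI50, growth is halved. TGI: total growth inhibition.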
# Key:
# Assay in all cases: inhibition of tumour cell growth, NCI panel, 48 h
# SF-268 CNS = system: SF-268 CNS
# RPMI-8226 leukemia = system: RPMI-8226 leukemia
# HOP-62 NSCLC = system: HOP-62 NSCLC
# IGROV1 ovarian = system: IGROV1 ovarian
# T-47D breast = system: T-47D breast
# BT-549 breast = system: BT-549 breast
# MDA-MB-435 = system: MDA-MB-435
# LOX IMVI melanoma = system: LOX IMVI melanoma
# ACHN renal = system: ACHN renal
# PC-3 prostate = system: PC-3 prostate
# OVCAR-3 ovarian = system: OVCAR-3 ovarian
# SF-539 CNS = system: SF-539 CNS
# MDA-N = system: MDA-N
# HS 578T breast = system: HS 578T breast
# NCI/ADR-RES ovarian = system: NCI/ADR-RES ovarian
# UACC-257 melanoma = system: UACC-257 melanoma
# SK-OV-3 ovarian = system: SK-OV-3 ovarian
# HOP-92 NSCLC = system: HOP-92 NSCLC
# UACC-62 melanoma = system: UACC-62 melanoma
# UO-31 renal = system: UO-31 renal
# SR leukemia = system: SR leukemia
# SW-620 colon = system: SW-620 colon
# MDA-MB-231 breast = system: MDA-MB-231 breast
# M14 melanoma = system: M14 melanoma
# KM12 colon = system: KM12 colon
# MCF7 breast = system: MCF7 breast
# HCC-2998 colon = system: HCC-2998 colon
# NCI-H23 lung = system: NCI-H23 lung
# OVCAR-8 ovarian = system: OVCAR-8 ovarian
# SK-MEL-2 melanoma = system: SK-MEL-2 melanoma
# MOLT-4 leukemia = system: MOLT-4 leukemia
# 786-0 renal = system: 786-0 renal
# CAKI-1 renal = system: CAKI-1 renal
# SK-MEL-5 melanoma = system: SK-MEL-5 melanoma
# DU-145 prostate = system: DU-145 prostate
# HCT-15 colon = system: HCT-15 colon
# COLO 205 colon = system: COLO 205 colon
# CCRF-CEM leukemia = system: CCRF-CEM leukemia
# RXF 393 renal = system: RXF 393 renal
# OVCAR-5 ovarian = system: OVCAR-5 ovarian
# SN12C renal = system: SN12C renal
# HL-60(TB) leukemia = system: HL-60(TB) leukemia
# MALME-3M melanoma = system: MALME-3M melanoma
# SNB-19 CNS = system: SNB-19 CNS
# A498 renal = system: A498 renal
# A549 NSCLC = system: A549 NSCLC
# NCI-H226 lung = system: NCI-H226 lung
# SF-295 CNS = system: SF-295 CNS
# SNB-75 CNS = system: SNB-75 CNS
# K-562 leukemia = system: K-562 leukemia
# NCI-H522 lung = system: NCI-H522 lung
# HT29 colon = system: HT29 colon
# TK-10 renal = system: TK-10 renal
# U251 CNS = system: U251 CNS
# HCT-116 colon = system: HCT-116 colon
# EKVX NSCLC = system: EKVX NSCLC
# OVCAR-4 ovarian = system: OVCAR-4 ovarian
# SK-MEL-28 melanoma = system: SK-MEL-28 melanoma
# NCI-H460 lung = system: NCI-H460 lung
compound,measurement,setting,value
CNC(=S)/C(C#N)=C(\N)N1CCN(C)CC1,TGI,SF-268 CNS,> 100 µM
same,TGI,RPMI-8226 leukemia,> 100 µM
same,TGI,HOP-62 NSCLC,> 100 µM
same,TGI,IGROV1 ovarian,> 100 µM
same,TGI,T-47D breast,> 100 µM
same,TGI,BT-549 breast,> 100 µM
same,TGI,MDA-MB-435,> 100 µM
same,TGI,LOX IMVI melanoma,> 100 µM
same,TGI,ACHN renal,> 100 µM
same,TGI,PC-3 prostate,> 100 µM
same,TGI,OVCAR-3 ovarian,> 100 µM
same,TGI,SF-539 CNS,> 100 µM
same,TGI,MDA-N,> 100 µM
same,TGI,HS 578T breast,> 100 µM
same,TGI,NCI/ADR-RES ovarian,> 100 µM
same,TGI,UACC-257 melanoma,> 100 µM
same,TGI,SK-OV-3 ovarian,> 100 µM
same,TGI,HOP-92 NSCLC,> 100 µM
same,TGI,UACC-62 melanoma,> 100 µM
same,TGI,UO-31 renal,> 100 µM
same,TGI,SR leukemia,> 100 µM
same,TGI,SW-620 colon,> 100 µM
same,TGI,MDA-MB-231 breast,> 100 µM
same,TGI,M14 melanoma,> 100 µM
same,TGI,KM12 colon,> 100 µM
same,TGI,MCF7 breast,> 100 µM
same,TGI,HCC-2998 colon,> 100 µM
same,TGI,NCI-H23 lung,> 100 µM
same,TGI,OVCAR-8 ovarian,> 100 µM
same,TGI,SK-MEL-2 melanoma,> 100 µM
same,TGI,MOLT-4 leukemia,> 100 µM
same,TGI,786-0 renal,> 100 µM
same,TGI,CAKI-1 renal,> 100 µM
same,TGI,SK-MEL-5 melanoma,> 100 µM
same,TGI,DU-145 prostate,> 100 µM
same,TGI,HCT-15 colon,> 100 µM
same,TGI,COLO 205 colon,> 100 µM
same,TGI,CCRF-CEM leukemia,> 100 µM
same,TGI,RXF 393 renal,> 100 µM
same,TGI,OVCAR-5 ovarian,> 100 µM
same,TGI,SN12C renal,> 100 µM
same,TGI,HL-60(TB) leukemia,> 100 µM
same,TGI,MALME-3M melanoma,> 100 µM
same,TGI,SNB-19 CNS,> 100 µM
same,TGI,A498 renal,> 100 µM
same,TGI,A549 NSCLC,> 100 µM
same,TGI,NCI-H226 lung,> 100 µM
same,TGI,SF-295 CNS,> 100 µM
same,TGI,SNB-75 CNS,> 100 µM
same,TGI,K-562 leukemia,> 100 µM
same,TGI,NCI-H522 lung,> 100 µM
same,TGI,HT29 colon,> 100 µM
same,TGI,TK-10 renal,> 100 µM
same,TGI,U251 CNS,> 100 µM
same,TGI,HCT-116 colon,> 100 µM
same,TGI,EKVX NSCLC,> 100 µM
CCCCOC(=O)CC(CC(=O)OCCCC)(OC(C)=O)C(=O)OCCCC,TGI,SF-268 CNS,> 200 µM
same,GI50,RPMI-8226 leukemia,29.2 µM
same,TGI,RPMI-8226 leukemia,123 µM
same,TGI,HOP-62 NSCLC,> 200 µM
same,TGI,IGROV1 ovarian,> 200 µM
same,GI50,T-47D breast,26.4 µM
same,TGI,T-47D breast,> 200 µM
same,TGI,BT-549 breast,> 200 µM
same,TGI,MDA-MB-435,> 200 µM
same,GI50,LOX IMVI melanoma,40.5 µM
same,TGI,LOX IMVI melanoma,> 200 µM
same,TGI,ACHN renal,> 200 µM
same,GI50,PC-3 prostate,86.5 µM
same,TGI,PC-3 prostate,> 200 µM
same,TGI,OVCAR-3 ovarian,> 200 µM
same,TGI,MDA-N,> 200 µM
same,TGI,HS 578T breast,> 200 µM
same,GI50,NCI/ADR-RES ovarian,74.2 µM
same,TGI,NCI/ADR-RES ovarian,> 200 µM
same,TGI,UACC-257 melanoma,> 200 µM
same,TGI,SK-OV-3 ovarian,> 200 µM
same,TGI,HOP-92 NSCLC,> 200 µM
same,GI50,OVCAR-4 ovarian,69.1 µM
same,TGI,OVCAR-4 ovarian,> 200 µM
same,TGI,UACC-62 melanoma,> 200 µM
same,TGI,UO-31 renal,98.2 µM
same,GI50,SR leukemia,32.2 µM
same,TGI,SR leukemia,> 50.7 µM
same,TGI,SW-620 colon,> 200 µM
same,TGI,MDA-MB-231 breast,> 200 µM
same,TGI,M14 melanoma,> 200 µM
same,TGI,KM12 colon,> 200 µM
same,TGI,MCF7 breast,> 200 µM
same,TGI,HCC-2998 colon,> 200 µM
same,TGI,SK-MEL-28 melanoma,> 200 µM
same,TGI,NCI-H23 lung,> 200 µM
same,TGI,OVCAR-8 ovarian,> 200 µM
same,TGI,NCI-H460 lung,> 200 µM
same,TGI,SK-MEL-2 melanoma,> 200 µM
same,GI50,MOLT-4 leukemia,24.8 µM
same,TGI,MOLT-4 leukemia,> 200 µM
same,TGI,786-0 renal,> 200 µM
same,TGI,CAKI-1 renal,> 200 µM
same,GI50,SK-MEL-5 melanoma,28.4 µM
same,TGI,SK-MEL-5 melanoma,> 200 µM
same,TGI,DU-145 prostate,> 200 µM
same,TGI,HCT-15 colon,> 200 µM
same,TGI,COLO 205 colon,> 200 µM
same,TGI,CCRF-CEM leukemia,> 200 µM
same,GI50,RXF 393 renal,96 µM
same,TGI,RXF 393 renal,> 124 µM
same,TGI,OVCAR-5 ovarian,> 200 µM
same,TGI,SN12C renal,> 200 µM
same,GI50,HL-60(TB) leukemia,49.1 µM
same,TGI,HL-60(TB) leukemia,> 179 µM
same,TGI,MALME-3M melanoma,> 200 µM
same,TGI,SNB-19 CNS,> 200 µM
same,TGI,A498 renal,> 200 µM
same,TGI,A549 NSCLC,> 200 µM
same,GI50,NCI-H226 lung,55.6 µM
same,TGI,NCI-H226 lung,198 µM
same,GI50,SF-295 CNS,54.3 µM
same,TGI,SF-295 CNS,> 200 µM
same,TGI,SNB-75 CNS,56.4 µM
same,GI50,K-562 leukemia,53.2 µM
same,TGI,K-562 leukemia,> 200 µM
same,TGI,NCI-H522 lung,> 200 µM
same,GI50,HT29 colon,68.8 µM
same,TGI,HT29 colon,> 200 µM
same,TGI,TK-10 renal,> 200 µM
same,GI50,U251 CNS,92.6 µM
same,TGI,U251 CNS,> 200 µM
same,GI50,HCT-116 colon,70.9 µM
same,TGI,HCT-116 colon,> 200 µM
same,TGI,EKVX NSCLC,> 200 µM
